Results: ChEMBL document CHEMBL1201862, “PubChem BioAssay data set” (2004)
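Results reflect a 48-hour exposure of cells in 96-well plates to compound at five concentrations. GI50 marks 50% less growth.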 Active and inactive are the calls of the source. Cut-off read from the data, not from the text of the source: active = GI50 up to about 1.1 µM and inactive = higher.

How the values were obtained:
Test in all cases: NCI-60 cell line screen, 48 h
ACHN = test system: ACHN
T47D = test system: T47D
HOP-18 = test system: HOP-18
XF498 = test system: XF498
BT-549 = test system: BT-549
MDA-MB-435 = test system: MDA-MB-435
DMS-273 = test system: DMS-273
RXF 631 = test system: RXF 631

SMILES | GI50 (ACHN) | GI50 (T47D) | GI50 (HOP-18) | GI50 (XF498) | GI50 (BT-549) | GI50 (MDA-MB-435) | GI50 (DMS-273) | GI50 (RXF 631)
CCP(=S)(CC)CCl | > 100 µM (inactive) | > 100 µM (inactive) |  |  |  |  |  | 
CN(C)CCNC(=O)c1cccc2nc(-c3ccccc3)oc12 |  |  | > 61.2 µM (inactive) | 34.3 µM (inactive) |  |  |  | 
CCOC(=O)C1=NN(c2ccccc2)C2=CC(C)=NN(C)C(=S)N21 | > 100 µM (inactive) | > 100 µM (inactive) |  |  | > 100 µM (inactive) | > 100 µM (inactive) |  | 
CC(=O)OC1CC[C@@]2(C)C(=CC[C@@H]3[C@@H]2CC[C@]2(C)Nc4nn(S(C)(=O)=O)cc4C[C@@H]32)C1 (stereo partly drawn) |  | 14.2 µM (inactive) |  |  | 20.3 µM (inactive) | 20 µM (inactive) |  | 
CN1CN(C(=O)N2CN(C)C(=O)N(C)C2)CN(C)C1=O | > 100 µM (inactive) |  | > 100 µM (inactive) | > 100 µM (inactive) |  |  |  | 
CC(=O)OC1CC2(O)C(CCC3(C)C(c4ccc(=O)oc4)CCC32O)C2(C)CCC(O)C=C12 (stereo not drawn) |  |  | 0.0094 µM (active) | 0.0381 µM (active) |  |  | 0.005 µM (active) | 
COc1ccc(C(=O)Cc2cc(OC)ccc2OC)cc1 | > 100 µM (inactive) |  | > 100 µM (inactive) |  |  |  | > 100 µM (inactive) | > 100 µM (inactive)
O=C(O)C12CC3CC(C1)C2C=C3P(=O)(O)O (stereo not drawn) | > 100 µM (inactive) |  |  |  |  |  | > 100 µM (inactive) | 
